Measured values as given in ChEMBL document CHEMBL1201862, “PubChem BioAssay data set” (2004).
Active and inactive are the calls of the source.

Key:
Escherichia coli = experiment: microbe, parasite or virus in culture
Vero = experiment: cells; type: functional; conditions: Chlorocebus sabaeus
Cytochrome P450 3A4 = Cytochrome P450 3A4 (Homo sapiens, UniProt P08684);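 note: CYP3A4 tested as one member of a cytochrome P450 panel screen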
Cytochrome P450 2D6 = Cytochrome P450 2D6 (Homo sapiens, UniProt P10635);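 note: CYP2D6 member of a cytochrome P450 panel assay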
Chain of Cytochrome P450 2D6 (P10635 whole entry): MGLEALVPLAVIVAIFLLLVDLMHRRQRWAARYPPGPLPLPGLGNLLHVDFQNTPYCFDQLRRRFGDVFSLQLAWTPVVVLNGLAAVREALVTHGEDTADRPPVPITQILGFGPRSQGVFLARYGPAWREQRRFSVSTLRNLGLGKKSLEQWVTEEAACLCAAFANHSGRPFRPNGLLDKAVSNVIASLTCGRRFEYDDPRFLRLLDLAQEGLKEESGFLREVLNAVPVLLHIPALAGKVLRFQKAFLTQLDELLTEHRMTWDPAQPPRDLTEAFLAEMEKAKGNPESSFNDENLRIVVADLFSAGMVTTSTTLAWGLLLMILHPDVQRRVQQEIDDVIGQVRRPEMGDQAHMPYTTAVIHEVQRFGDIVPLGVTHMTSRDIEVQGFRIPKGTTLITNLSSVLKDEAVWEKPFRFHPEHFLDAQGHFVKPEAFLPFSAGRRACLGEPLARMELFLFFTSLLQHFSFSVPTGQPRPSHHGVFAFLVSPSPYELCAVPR

Cytochrome P450 2C9 = Cytochrome P450 2C9 (Homo sapiens, UniProt P11712)
Chain of Cytochrome P450 2C9 (P11712 whole entry): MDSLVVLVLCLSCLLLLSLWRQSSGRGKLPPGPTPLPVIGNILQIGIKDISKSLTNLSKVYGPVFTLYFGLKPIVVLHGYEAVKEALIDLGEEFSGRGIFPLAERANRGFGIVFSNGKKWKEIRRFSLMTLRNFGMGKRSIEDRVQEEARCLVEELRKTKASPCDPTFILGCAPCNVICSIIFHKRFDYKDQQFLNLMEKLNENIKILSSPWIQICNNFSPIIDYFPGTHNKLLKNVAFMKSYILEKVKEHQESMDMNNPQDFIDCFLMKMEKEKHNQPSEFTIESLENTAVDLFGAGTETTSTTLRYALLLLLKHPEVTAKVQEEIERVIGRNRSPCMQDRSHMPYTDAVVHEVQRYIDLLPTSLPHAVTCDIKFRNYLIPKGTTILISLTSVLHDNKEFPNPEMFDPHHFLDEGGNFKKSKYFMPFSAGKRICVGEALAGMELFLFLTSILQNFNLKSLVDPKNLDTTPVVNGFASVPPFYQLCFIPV

[1] = Counterscreen for AddAB inhibitors: absorbance-based bacterial cell-based high throughput dose response assay for inhibitors of bacterial viability. [Related pubchem assays (depositor defined):AID435030, AID449728, AID449731, AID488942, AID488955, AID488956]; type: functional
Exodeoxyribonuclease V = biological target: T1, Exodeoxyribonuclease V (Escherichia coli (strain K12), UniProt P04993+P07648+P08394); experiment: E. coli RecBCD inhibitors, dose response, counter-screen for AddAB inhibitor project, absorbance, V66 E. coli, mutant T4 phage (AID 492957); type: functional, cell-based, Escherichia coli str. K-12 substr. MG1655
T1 sequence (P04993 whole entry): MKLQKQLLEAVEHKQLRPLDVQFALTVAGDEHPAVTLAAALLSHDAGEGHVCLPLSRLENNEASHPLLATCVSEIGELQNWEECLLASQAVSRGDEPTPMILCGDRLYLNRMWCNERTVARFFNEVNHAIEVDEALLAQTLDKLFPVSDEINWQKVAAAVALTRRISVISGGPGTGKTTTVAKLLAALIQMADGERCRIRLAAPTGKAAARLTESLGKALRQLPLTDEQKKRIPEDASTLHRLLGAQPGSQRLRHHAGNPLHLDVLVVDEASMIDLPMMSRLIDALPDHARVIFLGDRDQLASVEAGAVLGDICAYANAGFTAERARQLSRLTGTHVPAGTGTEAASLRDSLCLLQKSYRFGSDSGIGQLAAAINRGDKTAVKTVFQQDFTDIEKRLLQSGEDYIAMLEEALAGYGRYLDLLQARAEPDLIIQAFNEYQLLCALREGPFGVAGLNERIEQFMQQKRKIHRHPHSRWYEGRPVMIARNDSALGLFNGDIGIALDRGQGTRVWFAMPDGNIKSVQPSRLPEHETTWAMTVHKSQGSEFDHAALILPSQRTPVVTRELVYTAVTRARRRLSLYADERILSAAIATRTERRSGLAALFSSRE
T1 sequence (P07648 whole entry): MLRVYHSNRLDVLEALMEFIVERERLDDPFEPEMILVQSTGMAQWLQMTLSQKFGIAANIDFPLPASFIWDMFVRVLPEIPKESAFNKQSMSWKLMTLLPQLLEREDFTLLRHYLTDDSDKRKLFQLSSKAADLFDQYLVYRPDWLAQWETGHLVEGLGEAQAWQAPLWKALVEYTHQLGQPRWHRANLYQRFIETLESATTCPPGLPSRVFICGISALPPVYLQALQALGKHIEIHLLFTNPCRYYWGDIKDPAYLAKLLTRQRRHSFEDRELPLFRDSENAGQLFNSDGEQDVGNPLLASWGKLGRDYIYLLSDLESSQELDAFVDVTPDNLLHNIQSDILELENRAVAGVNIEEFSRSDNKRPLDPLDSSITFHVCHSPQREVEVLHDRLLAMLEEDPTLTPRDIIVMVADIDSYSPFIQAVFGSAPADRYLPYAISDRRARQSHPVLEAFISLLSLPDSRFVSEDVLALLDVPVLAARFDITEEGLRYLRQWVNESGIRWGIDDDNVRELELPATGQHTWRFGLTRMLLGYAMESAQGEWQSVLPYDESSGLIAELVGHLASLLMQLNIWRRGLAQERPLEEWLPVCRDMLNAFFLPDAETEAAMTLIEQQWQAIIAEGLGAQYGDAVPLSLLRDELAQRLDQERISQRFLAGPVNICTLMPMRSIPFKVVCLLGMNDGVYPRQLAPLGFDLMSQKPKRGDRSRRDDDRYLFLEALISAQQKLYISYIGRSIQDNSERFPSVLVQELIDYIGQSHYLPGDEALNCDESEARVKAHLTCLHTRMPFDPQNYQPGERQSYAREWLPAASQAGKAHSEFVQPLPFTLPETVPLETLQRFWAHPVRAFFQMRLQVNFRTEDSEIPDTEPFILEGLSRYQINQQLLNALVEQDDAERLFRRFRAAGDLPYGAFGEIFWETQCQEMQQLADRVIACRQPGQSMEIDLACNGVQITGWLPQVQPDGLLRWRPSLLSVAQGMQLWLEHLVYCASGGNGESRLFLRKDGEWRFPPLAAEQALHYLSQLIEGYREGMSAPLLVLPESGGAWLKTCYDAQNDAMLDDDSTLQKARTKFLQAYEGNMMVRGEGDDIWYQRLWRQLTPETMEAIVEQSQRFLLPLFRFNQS
T1 sequence (P08394 whole entry): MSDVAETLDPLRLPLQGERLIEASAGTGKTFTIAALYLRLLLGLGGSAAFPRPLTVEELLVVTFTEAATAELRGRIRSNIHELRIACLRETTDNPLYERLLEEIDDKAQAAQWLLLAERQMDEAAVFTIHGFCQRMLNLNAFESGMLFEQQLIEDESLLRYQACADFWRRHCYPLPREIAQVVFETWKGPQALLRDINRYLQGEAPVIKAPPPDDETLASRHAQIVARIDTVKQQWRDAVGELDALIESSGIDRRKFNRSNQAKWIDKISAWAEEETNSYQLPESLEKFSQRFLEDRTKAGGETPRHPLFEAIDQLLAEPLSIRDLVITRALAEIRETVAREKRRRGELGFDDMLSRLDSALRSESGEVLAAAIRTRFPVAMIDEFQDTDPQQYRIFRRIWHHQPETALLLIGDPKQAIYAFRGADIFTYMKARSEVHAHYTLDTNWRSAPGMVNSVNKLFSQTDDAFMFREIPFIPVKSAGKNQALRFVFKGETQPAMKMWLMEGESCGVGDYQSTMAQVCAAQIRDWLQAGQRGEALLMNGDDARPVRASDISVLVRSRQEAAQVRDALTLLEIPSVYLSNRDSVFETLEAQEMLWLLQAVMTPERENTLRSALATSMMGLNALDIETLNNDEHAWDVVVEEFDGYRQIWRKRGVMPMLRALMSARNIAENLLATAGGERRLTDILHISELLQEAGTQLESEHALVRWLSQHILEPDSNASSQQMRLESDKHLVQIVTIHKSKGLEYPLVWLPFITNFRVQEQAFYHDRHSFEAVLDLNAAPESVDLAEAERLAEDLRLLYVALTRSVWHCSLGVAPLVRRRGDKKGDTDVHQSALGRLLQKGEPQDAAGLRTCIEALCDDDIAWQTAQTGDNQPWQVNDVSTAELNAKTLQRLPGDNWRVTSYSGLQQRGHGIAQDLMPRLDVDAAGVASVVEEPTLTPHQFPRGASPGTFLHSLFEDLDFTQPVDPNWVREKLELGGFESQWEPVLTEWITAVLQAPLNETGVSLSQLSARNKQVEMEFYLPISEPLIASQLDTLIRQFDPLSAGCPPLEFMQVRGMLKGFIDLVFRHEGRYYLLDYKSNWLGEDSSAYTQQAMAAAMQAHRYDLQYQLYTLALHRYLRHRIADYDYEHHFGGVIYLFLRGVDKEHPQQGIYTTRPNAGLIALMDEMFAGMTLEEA

INS1 = experiment: beta cell apoptosis inhibitors, cytokine rescue, dose response, luminescence, retest (AID 449756); type: functional, cell-based; conditions: Rattus norvegicus;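 note: cell death triggered by IL-1 beta plus TNF-alpha plus IFN-gamma mixture; protective hits raise ATP signal compared with cytokine alone wells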
[2] = inhibitors of SNCA 5'UTR-driven reporter translation, confirmation, H4 neuroglioma cells, luminescence (AID 1988); type: functional, cell-based
[3] = cytotoxicity toward NIH3T3 fibroblasts, dose response, counter-screen, cell-based, ATP luminescence, mouse fibroblasts (AID 2010); type: functional;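 note: cells exposed to compound for about 90 hours before reading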
[4] = inhibitors of intracellular T. cruzi replication, confirmation, NIH3T3 host cells, beta-gal luminescence (AID 2044); type: functional, cell-based;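 note: intracellular parasites grown in NIH/3T3 mouse fibroblasts as host cells; luminescent beta-galactosidase reporter signal from transgenic T. cruzi replicating inside host cells; inhibitors lower the luminescence signal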
cells [5] = type: functional, cell-based
[6] = inhibitors of firefly luciferase expression or activity, dose response, H4 neuroglioma cells, luminescence (AID 1990); type: functional, cell-based
[7] = NIH-3T3 fibroblast cytotoxicity, dose response, cytotoxicity control, cell-based, fluorescence, Alamar Blue, secondary assay (AID 2327); type: functional;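 note: NIH-3T3 mouse fibroblasts cultured with fluconazole at 8 µg/mL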
[8] = Luminescence Cell-Based Dose Response HTS to Identify Inhibitors of 5'UTR Stem-Loop Driven Prion Protein mRNA Translation in H4 Neuroglioblastoma Cells. [Related pubchem assays: 1827 (Project Summary), 1813 (Primary HTS)]; type: functional
cells [9] = type: functional, cell-based; remark: listed apart in the source

Chain of Cytochrome P450 3A4 (P08684 whole entry): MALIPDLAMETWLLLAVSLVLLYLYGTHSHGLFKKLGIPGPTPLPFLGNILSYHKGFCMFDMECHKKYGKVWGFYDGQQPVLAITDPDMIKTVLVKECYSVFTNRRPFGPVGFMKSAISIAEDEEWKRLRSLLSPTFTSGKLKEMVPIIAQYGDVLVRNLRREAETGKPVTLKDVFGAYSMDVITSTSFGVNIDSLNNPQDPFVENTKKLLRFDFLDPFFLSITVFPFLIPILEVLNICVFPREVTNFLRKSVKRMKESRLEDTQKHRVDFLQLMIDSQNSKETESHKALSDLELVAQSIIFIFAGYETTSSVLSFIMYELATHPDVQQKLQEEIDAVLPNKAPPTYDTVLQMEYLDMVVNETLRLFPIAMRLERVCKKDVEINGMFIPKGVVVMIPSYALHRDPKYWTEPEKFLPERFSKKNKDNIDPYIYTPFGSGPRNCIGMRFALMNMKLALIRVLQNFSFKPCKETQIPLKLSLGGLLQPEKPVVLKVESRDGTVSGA

CCC(C)n1nccc1NC(=O)C(C)Cl (stereo not given)
AC50 (Escherichia coli): 31.4 µM (active)

COc1ccc(NC(=O)C2CCN(Cc3cnn(-c4ccccc4)c3-n3cccc3)CC2)cc1OC
AC50 (Escherichia coli): > 150 µM (inactive)

COc1ccc(Nc2nc(-c3ccccc3)nc3ccccc23)cc1S(=O)(=O)N1CCOCC1
CC50 (Vero): > 25 µM (active)

Cc1cc(C(=O)N2CCN(c3ccccc3)CC2)no1
AC50 (Escherichia coli): 28.2 µM (active)

CN(C)C(=O)N1CCCC(C(=O)NCCc2ccccc2)C1 (stereo not given)
AC50 (Cytochrome P450 3A4): 39.8 µM (inconclusive) | AC50 (Cytochrome P450 2D6): 10 µM (inconclusive) | AC50 (Cytochrome P450 2C9): inconclusive

COc1ccc(NC(=O)Cn2cc(C(=O)c3ccco3)c3ccccc32)cc1
IC50 [1]: > 119 µM (inactive) | IC50 (Exodeoxyribonuclease V): > 119 µM (inactive)

COc1cccc(-c2nc(N(C)C)c3ccccc3n2)c1
AC50 (Cytochrome P450 2C9): inconclusive

CN1CCCC2(CCN(C(=O)c3ccncc3)CC2)C1
AC50 (Cytochrome P450 2D6): 7.94 µM (inconclusive) | AC50 (Cytochrome P450 2C9): inconclusive

CCn1cc(C(=O)NCCCO)c(=O)c2cc(F)c(N3CCN(C)CC3)cc21
AC50 (Escherichia coli): 2.5 µM (active)

COc1cccc(/C=N\NC(=O)c2ccc(Cn3cc(Br)c([N+](=O)[O-])n3)o2)c1O
IC50 [1]: 31.8 µM (inactive) | AC50 (INS1): 1.89 µM (active) | IC50 (Exodeoxyribonuclease V): > 119 µM (inactive) | EC50 [2]: 10.4 µM (active) | EC50 [3]: > 60 µM (not active) | EC50 [4]: 1.09 µM (active) | EC50 (cells [5]): 51.1 µM (active) | EC50 [6]: 26 µM (active) | EC50 [7]: > 150 µM (inactive) | EC50 [8]: 20.2 µM (active) | EC50 (cells [9]): 28.6 µM (active)

Cc1ccnc(NS(=O)(=O)c2ccc(N)cc2)n1 [SULFAMERAZINE]
AC50 (Cytochrome P450 2C9): inconclusive
